Patent US20240124427A1, “HYDROXYHETEROCYCLOALKANE-CARBAMOYL DERIVATIVES” (Idorsia Pharmaceuticals Ltd, priority 2021, published 2024)
Read-outs that look alike come from different tables or passages of the source.

Experiments:
human Gal-1 (hGal-1) = human Gal-1 (hGal-1) (Homo sapiens, UniProt P09382); type: binding
human Gal-3 (hGal-3) = human Gal-3 (hGal-3) (Homo sapiens (Human), UniProt P17931); experiment: Competitive binding assay: biotinylated hGal-3 binding to microplate-adsorbed asialofetuin (ASF)
How it was run: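 Biotinylated human Gal-3 binding to plate-adsorbed asialofetuin, competed by compound, 3 h at 4 °C. Bound protein detected with streptavidin-peroxidase (1 h, 4 °C) and ABTS substrate. IC50 reported as mean of several measurements.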

[1] = Activity on hGal-3, mean values of several measurements, mixture of diastereomers measured where not separated

Chain of human Gal-3 (hGal-3) (P17931 whole entry): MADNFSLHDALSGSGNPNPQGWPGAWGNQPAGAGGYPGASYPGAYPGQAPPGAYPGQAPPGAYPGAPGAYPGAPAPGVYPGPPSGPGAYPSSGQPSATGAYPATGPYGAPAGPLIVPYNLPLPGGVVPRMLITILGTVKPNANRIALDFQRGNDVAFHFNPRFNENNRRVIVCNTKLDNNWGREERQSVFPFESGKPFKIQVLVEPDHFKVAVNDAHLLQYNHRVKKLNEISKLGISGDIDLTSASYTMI
Chain of human Gal-1 (hGal-1) (P09382 2-135 limits assumed): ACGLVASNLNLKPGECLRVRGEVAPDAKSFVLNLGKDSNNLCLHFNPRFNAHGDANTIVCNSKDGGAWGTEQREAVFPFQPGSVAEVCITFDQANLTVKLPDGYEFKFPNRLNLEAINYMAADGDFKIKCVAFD

Row | IC50 (human Gal-3 (hGal-3); [1]) | Compound | IC50 (human Gal-1 (hGal-1)) | IC50 (human Gal-3 (hGal-3))
1 |  | CO[C@@H]1[C@@H](n2cc(-c3cc(F)c(C)c(F)c3)nn2)[C@@H](O)[C@@H](CO)O[C@H]1C(=O)N(c1cc(C)cc(Br)c1)[C@H]1CNC[C@@H]1O [Example 70] | 1800 nM | 56 nM
2 |  | CO[C@@H]1[C@@H](n2cc(-c3cc(F)c(F)c(F)c3)nn2)[C@@H](O)[C@@H](CO)O[C@H]1C(=O)N(c1cc(Br)cc(Br)c1)[C@H]1CN(C(C)=O)C[C@@H]1O [Example 84] | 1210 nM | 70 nM
3 |  | CO[C@@H]1[C@@H](n2cc(-c3cc(F)c(C)c(F)c3)nn2)[C@@H](O)[C@@H](CO)O[C@H]1C(=O)N(c1cc(Cl)cc(Cl)c1)[C@@H]1CN(C(C)=O)C[C@H]1O [Example 85] | 13400 nM | 327 nM
4 |  | CO[C@@H]1[C@@H](n2cc(-c3cc(F)c(Cl)c(F)c3)nn2)[C@@H](O)[C@@H](CO)O[C@H]1C(=O)N(c1cc(Cl)cc(Cl)c1)[C@@H]1CN(C(C)=O)C[C@H]1O [Example 86] | 1780 nM | 64 nM
5 |  | CO[C@@H]1[C@@H](n2cc(-c3cc(F)c(Cl)c(F)c3)nn2)[C@@H](O)[C@@H](CO)O[C@H]1C(=O)N(c1cc(Br)cc(Br)c1)[C@@H]1CN(C(C)=O)C[C@H]1O [Example 87] | 1860 nM | 36 nM
6 |  | CO[C@@H]1[C@@H](n2cc(-c3ccc(Cl)c(Cl)c3)nn2)[C@@H](O)[C@@H](CO)O[C@H]1C(=O)N(c1cc(Cl)cc(Cl)c1)[C@@H]1CN(C(C)=O)C[C@H]1O [Example 88] | 657 nM | 71 nM
7 | 217 nM | CO[C@@H]1[C@@H](n2cc(-c3cc(F)c(F)c(F)c3)nn2)[C@@H](O)[C@@H](CO)O[C@H]1C(=O)N(c1cc(Cl)cc(Cl)c1)[C@@H]1COCC[C@H]1O [Example 107, (2R,3R,4S,5R,6R)-N-(3,5-dichlorophenyl)-5-hydroxy-6-(hydroxymethyl)-N-((3R,4R)-4-hydroxytetrahydro-2H-pyran-3-yl)-3-methoxy-4-(4-(3,4,5-trifluorophenyl)-1H-1,2,3-triazol-1-yl)tetrahydro-2H-pyran-2-carboxamide] |  | 
8 | 315 nM | CO[C@@H]1[C@@H](n2cc(-c3cc(F)c(F)c(F)c3)nn2)[C@@H](O)[C@@H](CO)O[C@H]1C(=O)N(c1cc(C)cc(Br)c1)[C@@H]1COCC[C@H]1O [Example 108, (2R,3R,4S,5R,6R)-N-(3-bromo-5-methylphenyl)-5-hydroxy-6-(hydroxymethyl)-N-((3R,4R)-4-hydroxytetrahydro-2H-pyran-3-yl)-3-methoxy-4-(4-(3,4,5-trifluorophenyl)-1H-1,2,3-triazol-1-yl)tetrahydro-2H-pyran-2-carboxamide] |  | 
9 | 13 nM | CO[C@@H]1[C@@H](n2cc(-c3cc(F)c(F)c(F)c3)nn2)[C@@H](O)[C@@H](CO)O[C@H]1C(=O)N(c1cc(Cl)cc(Cl)c1)[C@H]1CNCC[C@@H]1O [Example 113, (2R,3R,4S,5R,6R)-N-(3,5-dichlorophenyl)-5-hydroxy-6-(hydroxymethyl)-N-((3S,4S)-4-hydroxypiperidin-3-yl)-3-methoxy-4-(4-(3,4,5-trifluorophenyl)-1H-1,2,3-triazol-1-yl)tetrahydro-2H-pyran-2-carboxamide] |  | 
10 | 9 nM | CO[C@@H]1[C@@H](n2cc(-c3cc(F)c(F)c(F)c3)nn2)[C@@H](O)[C@@H](CO)O[C@H]1C(=O)N(c1cc(C)cc(Br)c1)[C@H]1CNCC[C@@H]1O [Example 114, (2R,3R,4S,5R,6R)-N-(3-bromo-5-methylphenyl)-5-hydroxy-6-(hydroxymethyl)-N-((3S,4S)-4-hydroxypiperidin-3-yl)-3-methoxy-4-(4-(3,4,5-trifluorophenyl)-1H-1,2,3-triazol-1-yl)tetrahydro-2H-pyran-2-carboxamide] |  | 
11 | 196 nM | CO[C@@H]1[C@@H](n2cc(-c3cc(F)c(F)c(F)c3)nn2)[C@@H](O)[C@@H](CO)O[C@H]1C(=O)N(c1cc(C)cc(Br)c1)[C@@H]1CNCC[C@H]1O [Example 115, (2R,3R,4S,5R,6R)-N-(3-bromo-5-methylphenyl)-5-hydroxy-6-(hydroxymethyl)-N-((3R,4R)-4-hydroxypiperidin-3-yl)-3-methoxy-4-(4-(3,4,5-trifluorophenyl)-1H-1,2,3-triazol-1-yl)tetrahydro-2H-pyran-2-carboxamide] |  | 
